Results on one molecule are retold here after patent US20150282489A1, “SYNERGISTIC FUNGICIDAL COMPOSITIONS CONTAINING LACTOPEROXIDASE SYSTEM” (DSM IP ASSETS B.V., priority 2012, published 2015).

Test [1] relates to powdery mildew spores (spores of Oidium neolycopersici). The test can be described thus: Treatment of tomato plants against mildew disease (Example 2, lactoperoxidase system applied first, natamycin after one hour). The format is in vivo, Oidium neolycopersici on tomato plants. The method, then:
(§1) Tomato plants were grown in a greenhouse using well known methods. Twenty-five days after planting, the tomato plants were inoculated with powdery mildew spores (spores of Oidium neolycopersici). Fourteen days after the tomato plants were inoculated with the spores, the plants were treated with: All compositions comprising natamycin comprised glycerol (2.5 ml/l ) and polyether trisiloxane (BREAK-TRU®; 0.25 ml/l ). The lactoperoxidase system comprised lactoperoxidase, potassium iodide, potassium thiocyanate and a hydrogen peroxide source. When the lactoperoxidase system was used alone, ADDIT, a rapeseed-oil based adjuvant, was added to the lactoperoxidase system. The tomato plants were sprayed with 2000 lof the respective composition per ha, corresponding to a rate of about 130 ml of the respective composition per plant. The trial was performed on four plots with each plot containing 5 tomato plants. Powdery mildew growth was assessed in a twofold manner: (i) the number of visible colonies on 2 marked leafs of each tomato plant were counted; and (ii) the antifungal activity (in %) of the individual and combined active ingredients was determined by calculating the reduction in mould growth observed on the marked leafs of the tomato plants that were treated with the antifungal composition in comparison to the mould growth on the marked leafs of the tomato plants that were treated with the control composition. The expected antifungal activity (E in %) of the combined antifungal composition comprising both active ingredients was calculated according to the Colby equation (Colby, 1967): E=X+Y−[(X·Y)/100] wherein X and Y are the observed antifungal activities (in %) of the individual active ingredients X and Y, respectively. If the observed antifungal activity (O in %) of the combination exceeds the expected antifungal activity (E in %) of the combination and the synergy factor O/E is thus >1.0, the combined application of the active ingredients leads to a synergistic antifungal effect. The experiment was done as described in Example 1, with the proviso that first of all the lactoperoxidase system was applied to the tomato plants and after one hour (when the tomato plants were dry again) the natamycin composition was applied.

Test [2] has the same test system. Put plainly: Treatment of tomato plants against mildew disease (Example 1, natamycin and lactoperoxidase system mixed before application). It counts as in vivo, Oidium neolycopersici on tomato plants. The procedure: as §1, with “with: a) a composition comprising natamycin (1500 ppm), b) a composition comprising a lactoperoxidase system, or c) a composition comprising natamycin (1500 ppm) and a lactoperoxidase system (natamycin and the lactoperoxidase system were mixed before application to the tomato plants). As a control, untreated tomato plants were used.” for “with:”, “effect.” for “effect. The experiment was done as described in Example 1, with the proviso that first of all the lactoperoxidase system was applied to the tomato plants and after one hour (when the tomato plants were dry again) the natamycin composition was applied.”

As to `C[C@@H]1C/C=C/C=C/C=C/C=C/[C@H](O[C@@H]2O[C@H](C)[C@@H](O)[C@H](N)[C@@H]2O)C[C@@H]2O[C@](O)(C[C@@H](O)C[C@H]3O[C@@H]3/C=C/C(=O)O1)C[C@H](O)[C@H]2C(=O)O` [Natamcyin, natamycin], the “Change in visible fungal colonies at 9 days after application” value is listed as “increase in visible fungal colonies” in test [1] (9 days after application, combination applied sequentially) and “increase in visible fungal colonies” in test [2] (9 days after application of the respective compositions). The “Average number of fungal colonies per tomato leaf, Day 9” value in test [1] (9 days after application, combination: lactoperoxidase system first, natamycin after one hour) is listed as 11.9; in test [2] (9 days after application, natamycin 1500 ppm, spray 2000 l/ha), 11.9. For the same molecule, the “Average number of fungal colonies per tomato leaf, Day −1” value was 6.1 in test [1] (one day before application (baseline), combination applied sequentially) and 6.1 in test [2] (one day before application of the composition (baseline), natamycin 1500 ppm, spray 2000 l/ha). For the same molecule, the “Average number of fungal colonies per tomato leaf, Day 9 corrected for Day −1” value in test [1] (positive = increase, negative = decrease from day −1 to day 9, combination applied sequentially) was 5.8; in test [2] (positive = increase, negative = decrease from day −1 to day 9, natamycin 1500 ppm), 5.8.
